{"source": "patent US20210093730A1", "about": "“BIOMARKERS FOR ANTIBODY-DRUG CONJUGATE MONOTHERAPY OR COMBINATION THERAPY” (Immunomedics, Inc., priority 2019, published 2021)", "key": {"[1]": {"test_system": "recurrent SCLC", "conditions": "cited from earlier work"}, "[2]": {"test_system": "urothelial carcinoma", "conditions": "docetaxel-alone control arm; cited from earlier work"}, "[3]": {"test_system": "metastatic colorectal cancer", "conditions": "cited from earlier work"}, "[4]": {"test_system": "relapsed metastatic ovarian cancer", "experiment": "Therapy of relapsed metastatic ovarian cancer with IMMU-130 plus prexasertib (case, Example 7)", "conditions": "one patient"}, "[5]": {"test_system": "SCLC", "conditions": "28 patients; cited from earlier work"}, "[6]": {"test_system": "SCLC", "conditions": "cited from earlier work"}, "[7]": {"test_system": "TNBC xenografts", "conditions": "in combination with sacituzumab govitecan; independent of BRCA1/2 mutation status; cited from earlier work"}, "[8]": {"test_system": "platinum-resistant urothelial cancer", "conditions": "cited from earlier work"}, "[9]": {"test_system": "advanced colorectal cancer", "conditions": "cited from earlier work"}, "[10]": {"test_system": "urothelial carcinoma", "conditions": "cited from earlier work"}, "[11]": {"test_system": "MDA-MB-231 human breast cancer cells", "conditions": "cells with induced resistance to SN-38; cited from earlier work"}, "[12]": {"test_system": "NCI-N87-S120 human gastric cancer cells", "conditions": "cells with induced resistance to SN-38; cited from earlier work"}, "[13]": {"test_system": "NCI-N87-S120 xenografts", "conditions": "in combination with IMMU-132; cited from earlier work"}}, "note": "Where two headings read alike, the source gives them in different places."}
{"compound": "nivolumab: anti-PD1 checkpoint inhibitor antibody", "values": [{"measurement": "disease-control rate", "setting": "[1]; combination with ipilimumab", "result": 32, "unit": "%"}, {"measurement": "response rate", "setting": "[1]; nivolumab alone", "result": 10, "unit": "%"}]}
{"compound": "CC(=O)O[C@@]12CO[C@@H]1C[C@H](O)[C@@]1(C)C(=O)[C@H](O)C3=C(C)[C@@H](OC(=O)[C@H](O)[C@@H](NC(=O)OC(C)(C)C)c4ccccc4)C[C@@](O)([C@@H](OC(=O)c4ccccc4)[C@H]21)C3(C)C", "note": "[docetaxel]", "values": [{"measurement": "progression-free survival", "setting": "[2]", "result": 10.4, "unit": "weeks"}, {"measurement": "response rate", "setting": "[2]", "result": 5, "unit": "%"}]}
{"compound": "labetuzumab govitecan", "values": [{"measurement": "patients with a reduction in tumor size and plasma CEA levels", "setting": "[3]; 72 assessable patients", "result": 38, "unit": "%"}, {"measurement": "patients with partial response", "setting": "[3]; 72 assessable patients", "result": "One"}, {"measurement": "patients with stable disease", "setting": "[3]; 72 assessable patients", "result": 42, "unit": "patients"}, {"measurement": "median OS", "setting": "[3]; human, in vivo", "result": 6.9, "unit": "months"}, {"measurement": "median PFS", "setting": "[3]; human, in vivo", "result": 3.6, "unit": "months"}, {"measurement": "response by RECIST criteria", "setting": "[4]; IMMU-130 10 mg/kg plus prexasertib 105 mg/m^2", "result": "partial response"}, {"measurement": "decrease of the sum of the diameters of the index lesions", "setting": "[4]; IMMU-130 plus prexasertib", "result": 45, "unit": "%"}, {"measurement": "toxicity", "setting": "[4]; IMMU-130 plus prexasertib", "result": "transient grade 2 neutropenia and some initial diarrhea"}]}
{"compound": "CC[C@@]1(O)C(=O)OCc2c1cc1n(c2=O)Cc2cc3c(CN(C)C)c(O)ccc3nc2-1", "note": "[topotecan]", "values": [{"measurement": "PR", "setting": "[5]", "result": 11, "unit": "%"}, {"measurement": "median survival", "setting": "[5]", "result": 5, "unit": "months"}, {"measurement": "one-year survival", "setting": "[5]", "result": 3.5, "unit": "%"}, {"measurement": "objective response rate", "setting": "[6]; chemoresistant frontline patients", "result": 5, "unit": "%"}, {"measurement": "objective response rate", "setting": "[6]; chemosensitive patients", "result": 17, "unit": "%"}, {"measurement": "grade >=3 anemia", "setting": "[6]; in vivo", "result": 24, "unit": "%"}, {"measurement": "grade >=3 neutropenia", "setting": "[6]; in vivo", "result": 69, "unit": "%"}, {"measurement": "grade >=3 thrombocytopenia", "setting": "[6]; in vivo", "result": 1, "unit": "%"}, {"measurement": "patients who died from this chemotherapy", "setting": "[6]; in vivo", "result": "approximately 2%"}]}
{"compound": "CNCc1ccc(-c2[nH]c3cc(F)cc4c3c2CCNC4=O)cc1", "note": "[rucaparib]", "values": [{"measurement": "effect on tumor growth", "setting": "[7]", "result": "synergistic inhibition of tumor growth"}]}
{"compound": "CCc1c2c(nc3ccc(OC(=O)N4CCC(N5CCCCC5)CC4)cc13)-c1cc3c(c(=O)n1C2)COC(=O)[C@]3(O)CC", "note": "[irinotecan]", "values": [{"measurement": "overall response rate", "setting": "[8]; 95% confidence interval 1%-17%", "result": 5, "unit": "%"}, {"measurement": "duration of a complete response", "setting": "[8]; human, in vivo", "result": 33, "unit": "months"}, {"measurement": "overall survival", "setting": "[8]; human, in vivo", "result": 5.4, "unit": "months"}, {"measurement": "response to irinotecan", "setting": "[9]; TDP1 IVS12+79 G/G genotype", "result": 64, "unit": "%"}, {"measurement": "response to irinotecan", "setting": "[9]; TDP1 IVS12+79 T/T genotype", "result": 25, "unit": "%"}, {"measurement": "incidence of grade 3/4 neutropenia", "setting": "[9]; TOP1 IVS4+61 A/A genotype (small sample size)", "result": 50, "unit": "%"}, {"measurement": "incidence of grade 3/4 neutropenia", "setting": "[9]; TOP1 IVS4+61 G/G genotype", "result": 8, "unit": "%"}]}
{"compound": "Nc1nc2[nH]cc(CCc3ccc(C(=O)N[C@@H](CCC(=O)O)C(=O)O)cc3)c2c(=O)[nH]1", "note": "[pemetrexed]", "values": [{"measurement": "objective response rate", "setting": "[10]; 95% confidence interval 1%-9%", "result": 5, "unit": "%"}, {"measurement": "median progression-free survival", "setting": "[10]; in vivo", "result": 2.4, "unit": "months"}]}
{"compound": "Cn1ncnc1[C@H]1c2n[nH]c(=O)c3cc(F)cc(c23)N[C@@H]1c1ccc(F)cc1", "note": "[talazoparib]", "values": [{"measurement": "effect on tumor growth", "setting": "[7]", "result": "synergistic inhibition of tumor growth"}]}
{"compound": "COc1ccc2c3c([nH]c2c1)[C@H](CC(C)C)N1C(=O)[C@H](CCC(=O)OC(C)(C)C)NC(=O)[C@@H]1C3", "note": "[Kol43]", "values": [{"measurement": "effect on toxicity of SN-38", "setting": "[11]", "result": "restored toxicity of SN-38"}, {"measurement": "effect on toxicity of SN-38", "setting": "[12]", "result": "restored toxicity of SN-38"}]}
{"compound": "COc1ccc2c3c([nH]c2c1)[C@H](C=C(C)C)N1C(=O)[C@@H]2CCCN2C(=O)[C@@H]1C3", "note": "[fumitremorgin C]", "values": [{"measurement": "effect on toxicity of SN-38", "setting": "[11]", "result": "restored toxicity of SN-38"}, {"measurement": "effect on toxicity of SN-38", "setting": "[12]", "result": "restored toxicity of SN-38"}]}
{"compound": "O=C(c1cc(Cc2n[nH]c(=O)c3ccccc23)ccc1F)N1CCN(C(=O)C2CC2)CC1", "note": "[olaparib]", "values": [{"measurement": "effect on tumor growth", "setting": "[7]", "result": "synergistic inhibition of tumor growth"}]}
{"compound": "CCN(CC)CC(=O)OC1CCN(c2ccc(/C=C(\\C#N)c3ccc(OC)c(OC)c3)s2)CC1.CS(=O)(=O)O", "note": "[YHO-13351]", "values": [{"measurement": "effect on toxicity of SN-38", "setting": "[11]", "result": "restored toxicity of SN-38"}, {"measurement": "effect on toxicity of SN-38", "setting": "[12]", "result": "restored toxicity of SN-38"}, {"measurement": "median survival of mice", "setting": "[13]", "result": "increased median survival"}]}
